In PubChem BioAssay (NCI):
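Dose response: 5 concentrations. Exposure: 48 h. Format: 96-well plates. Endpoint: linear interpolation; highest concentration if not reached. At the GI50, growth is halved. TGI denotes the concentration required for complete inhibition of growth.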

Key:
Assay in all cases: inhibition of tumour cell growth, NCI panel, 48 h
SF-268 CNS = test system: SF-268 CNS
SK-MEL-2 melanoma = test system: SK-MEL-2 melanoma
NCI-H226 lung = test system: NCI-H226 lung
NCI-H23 lung = test system: NCI-H23 lung
MDA-MB-435 = test system: MDA-MB-435
KM12 colon = test system: KM12 colon
SF-539 CNS = test system: SF-539 CNS
LOX IMVI melanoma = test system: LOX IMVI melanoma
SNB-19 CNS = test system: SNB-19 CNS
PC-3 prostate = test system: PC-3 prostate
NCI/ADR-RES ovarian = test system: NCI/ADR-RES ovarian
HCC-2998 colon = test system: HCC-2998 colon
HL-60(TB) leukemia = test system: HL-60(TB) leukemia
UO-31 renal = test system: UO-31 renal
TK-10 renal = test system: TK-10 renal
SN12C renal = test system: SN12C renal
OVCAR-5 ovarian = test system: OVCAR-5 ovarian
SF-295 CNS = test system: SF-295 CNS
SK-OV-3 ovarian = test system: SK-OV-3 ovarian
OVCAR-8 ovarian = test system: OVCAR-8 ovarian
COLO 205 colon = test system: COLO 205 colon
CAKI-1 renal = test system: CAKI-1 renal
RXF 393 renal = test system: RXF 393 renal
OVCAR-3 ovarian = test system: OVCAR-3 ovarian
HCT-15 colon = test system: HCT-15 colon
HT29 colon = test system: HT29 colon
MCF7 breast = test system: MCF7 breast
SNB-75 CNS = test system: SNB-75 CNS
M14 melanoma = test system: M14 melanoma
HOP-62 NSCLC = test system: HOP-62 NSCLC
A549 NSCLC = test system: A549 NSCLC
786-0 renal = test system: 786-0 renal
T-47D breast = test system: T-47D breast
HCT-116 colon = test system: HCT-116 colon
NCI-H522 lung = test system: NCI-H522 lung
OVCAR-4 ovarian = test system: OVCAR-4 ovarian
CCRF-CEM leukemia = test system: CCRF-CEM leukemia
NCI-H460 lung = test system: NCI-H460 lung
UACC-62 melanoma = test system: UACC-62 melanoma
DU-145 prostate = test system: DU-145 prostate
ACHN renal = test system: ACHN renal
U251 CNS = test system: U251 CNS
MDA-MB-231 breast = test system: MDA-MB-231 breast
K-562 leukemia = test system: K-562 leukemia
SK-MEL-28 melanoma = test system: SK-MEL-28 melanoma
HOP-92 NSCLC = test system: HOP-92 NSCLC
BT-549 breast = test system: BT-549 breast
SK-MEL-5 melanoma = test system: SK-MEL-5 melanoma
MOLT-4 leukemia = test system: MOLT-4 leukemia
UACC-257 melanoma = test system: UACC-257 melanoma
IGROV1 ovarian = test system: IGROV1 ovarian
SR leukemia = test system: SR leukemia
MALME-3M melanoma = test system: MALME-3M melanoma
SW-620 colon = test system: SW-620 colon
A498 renal = test system: A498 renal
HS 578T breast = test system: HS 578T breast
MDA-MB-468 breast = test system: MDA-MB-468 breast
EKVX NSCLC = test system: EKVX NSCLC
RPMI-8226 leukemia = test system: RPMI-8226 leukemia

Compound `COc1ccc(CN2[C@@H](C(=O)NCc3ccc(C(=O)NO)cc3)Cc3c([nH]c4ccccc34)[C@@H]2C2CC2)cc1` has a GI50 (SF-268 CNS) of 4.4 µM, a TGI (SF-268 CNS) of 13 µM and a GI50 (SK-MEL-2 melanoma) of 4.11 µM. The TGI (SK-MEL-2 melanoma) was 12 µM, the GI50 (NCI-H226 lung) was 3.41 µM and the TGI (NCI-H226 lung) was 10.1 µM. It also gave a GI50 (NCI-H23 lung) of 2.75 µM, a TGI (NCI-H23 lung) of 5.77 µM and a GI50 (MDA-MB-435) of 0.638 µM. It also gave a TGI (MDA-MB-435) of 2.67 µM, a GI50 (KM12 colon) of 3.51 µM and a TGI (KM12 colon) of 16.7 µM. It also gave a GI50 (SF-539 CNS) of 2.48 µM, a TGI (SF-539 CNS) of 5.71 µM and a GI50 (LOX IMVI melanoma) of 2.37 µM. For the same compound, the TGI (LOX IMVI melanoma) was 4.81 µM, the GI50 (SNB-19 CNS) was 2.89 µM and the TGI (SNB-19 CNS) was 6.8 µM. For the same compound, the GI50 (PC-3 prostate) was 3.12 µM, the TGI (PC-3 prostate) was > 19.8 µM and the GI50 (NCI/ADR-RES ovarian) was 4.05 µM. For the same compound, the TGI (NCI/ADR-RES ovarian) was 13.8 µM, the GI50 (HCC-2998 colon) was 2.6 µM and the TGI (HCC-2998 colon) was 5.59 µM. The GI50 (HL-60(TB) leukemia) was 2.73 µM, the TGI (HL-60(TB) leukemia) was > 19.8 µM and the GI50 (UO-31 renal) was 3 µM. The TGI (UO-31 renal) was 5.72 µM, the GI50 (TK-10 renal) was 3.17 µM and the TGI (TK-10 renal) was 10.1 µM. The GI50 (SN12C renal) was 3.86 µM, the TGI (SN12C renal) was 13.4 µM and the GI50 (OVCAR-5 ovarian) was 1.87 µM. The TGI (OVCAR-5 ovarian) was 6.05 µM, the GI50 (SF-295 CNS) was 2.92 µM and the TGI (SF-295 CNS) was 6.05 µM. The GI50 (SK-OV-3 ovarian) was 2.87 µM, the TGI (SK-OV-3 ovarian) was 6.97 µM and the GI50 (OVCAR-8 ovarian) was 2.56 µM. The TGI (OVCAR-8 ovarian) was 9.71 µM, the GI50 (COLO 205 colon) was 3.47 µM and the TGI (COLO 205 colon) was 8.03 µM. The GI50 (CAKI-1 renal) was 2.39 µM, the TGI (CAKI-1 renal) was 6.73 µM and the GI50 (RXF 393 renal) was 0.797 µM. The TGI (RXF 393 renal) was 4.09 µM, the GI50 (OVCAR-3 ovarian) was 3.41 µM and the TGI (OVCAR-3 ovarian) was 14.7 µM. The GI50 (HCT-15 colon) was 3.75 µM, the TGI (HCT-15 colon) was 10.5 µM and the GI50 (HT29 colon) was 4.84 µM. For the same compound, the TGI (HT29 colon) was > 19.8 µM, the GI50 (MCF7 breast) was 2.33 µM and the TGI (MCF7 breast) was 12 µM. It also gave a GI50 (SNB-75 CNS) of 1.13 µM, a TGI (SNB-75 CNS) of 5.68 µM and a GI50 (M14 melanoma) of 4.07 µM. The TGI (M14 melanoma) was > 19.8 µM, the GI50 (HOP-62 NSCLC) was 3.48 µM and the TGI (HOP-62 NSCLC) was 8.58 µM. For the same compound, the GI50 (A549 NSCLC) was 3.54 µM, the TGI (A549 NSCLC) was 9.02 µM and the GI50 (786-0 renal) was 3.98 µM. For the same compound, the TGI (786-0 renal) was 13 µM, the GI50 (T-47D breast) was 3.82 µM and the TGI (T-47D breast) was 12.6 µM. For the same compound, the GI50 (HCT-116 colon) was 2.08 µM, the TGI (HCT-116 colon) was > 19.8 µM and the GI50 (NCI-H522 lung) was 0.964 µM. For the same compound, the TGI (NCI-H522 lung) was 5.06 µM, the GI50 (OVCAR-4 ovarian) was 4.74 µM and the TGI (OVCAR-4 ovarian) was > 19.8 µM. The GI50 (CCRF-CEM leukemia) was 0.996 µM, the TGI (CCRF-CEM leukemia) was > 19.8 µM and the GI50 (NCI-H460 lung) was 3.14 µM. For the same compound, the TGI (NCI-H460 lung) was 9.21 µM, the GI50 (UACC-62 melanoma) was 1.55 µM and the TGI (UACC-62 melanoma) was 4.6 µM. For the same compound, the GI50 (DU-145 prostate) was 4.38 µM, the TGI (DU-145 prostate) was > 19.8 µM and the GI50 (ACHN renal) was 3.52 µM. For the same compound, the TGI (ACHN renal) was 9.33 µM, the GI50 (U251 CNS) was 2.67 µM and the TGI (U251 CNS) was 6.78 µM. It also gave a GI50 (MDA-MB-231 breast) of 2.43 µM, a TGI (MDA-MB-231 breast) of 7.52 µM and a GI50 (K-562 leukemia) of 1.67 µM. For the same compound, the TGI (K-562 leukemia) was > 19.8 µM, the GI50 (SK-MEL-28 melanoma) was 1.98 µM and the TGI (SK-MEL-28 melanoma) was 5.88 µM. It also gave a GI50 (HOP-92 NSCLC) of 2.62 µM, a TGI (HOP-92 NSCLC) of 6.65 µM and a GI50 (BT-549 breast) of 4.99 µM. For the same compound, the TGI (BT-549 breast) was 9.96 µM, the GI50 (SK-MEL-5 melanoma) was 2.6 µM and the TGI (SK-MEL-5 melanoma) was 5.25 µM. The GI50 (MOLT-4 leukemia) was 1.85 µM, the TGI (MOLT-4 leukemia) was > 19.8 µM and the GI50 (UACC-257 melanoma) was 2.39 µM. It also gave a TGI (UACC-257 melanoma) of 9.74 µM, a GI50 (IGROV1 ovarian) of 2.6 µM and a TGI (IGROV1 ovarian) of 5.78 µM. For the same compound, the GI50 (SR leukemia) was > 19.8 µM, the TGI (SR leukemia) was > 19.8 µM and the GI50 (MALME-3M melanoma) was 0.847 µM. For the same compound, the TGI (MALME-3M melanoma) was 4.17 µM, the GI50 (SW-620 colon) was 2.26 µM and the TGI (SW-620 colon) was 8.03 µM. It also gave a GI50 (A498 renal) of 2.77 µM, a TGI (A498 renal) of 7.99 µM and a GI50 (HS 578T breast) of 1.85 µM. For the same compound, the TGI (HS 578T breast) was 14.4 µM, the GI50 (MDA-MB-468 breast) was 1 µM and the TGI (MDA-MB-468 breast) was 4.34 µM. For the same compound, the GI50 (EKVX NSCLC) was 3.2 µM, the TGI (EKVX NSCLC) was 10.9 µM and the GI50 (RPMI-8226 leukemia) was 2.92 µM. For the same compound, the TGI (RPMI-8226 leukemia) was > 19.8 µM.
